Consider 32 molecules from US8013156B2 (Exelixis, Inc., priority 2003, dated 2011).

The target of the test is Tie-2 (Homo sapiens, UniProt Q02763). Briefly: Tie-2 tyrosine kinase activity assay (luciferase/luciferin ATP consumption with pEY substrate, or 33P-ATP incorporation). It counts as biochemical. Conditions: human enzyme Tie-2. In a few lines:
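Values are IC50 categories (A <50 nM to D ≥10,000 nM), with Ki obtainable by fitting rates to a tight-binding model. Assay formats: 33P-ATP phosphate transfer to adsorbed generic substrate counted by scintillation, or luciferase-detected ATP depletion using pEY.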

For orientation: IC50 means the concentration that gives 50% inhibition. High values mean lower potency, low ones higher potency.

Sequence of Tie-2 (Q02763 23-1124): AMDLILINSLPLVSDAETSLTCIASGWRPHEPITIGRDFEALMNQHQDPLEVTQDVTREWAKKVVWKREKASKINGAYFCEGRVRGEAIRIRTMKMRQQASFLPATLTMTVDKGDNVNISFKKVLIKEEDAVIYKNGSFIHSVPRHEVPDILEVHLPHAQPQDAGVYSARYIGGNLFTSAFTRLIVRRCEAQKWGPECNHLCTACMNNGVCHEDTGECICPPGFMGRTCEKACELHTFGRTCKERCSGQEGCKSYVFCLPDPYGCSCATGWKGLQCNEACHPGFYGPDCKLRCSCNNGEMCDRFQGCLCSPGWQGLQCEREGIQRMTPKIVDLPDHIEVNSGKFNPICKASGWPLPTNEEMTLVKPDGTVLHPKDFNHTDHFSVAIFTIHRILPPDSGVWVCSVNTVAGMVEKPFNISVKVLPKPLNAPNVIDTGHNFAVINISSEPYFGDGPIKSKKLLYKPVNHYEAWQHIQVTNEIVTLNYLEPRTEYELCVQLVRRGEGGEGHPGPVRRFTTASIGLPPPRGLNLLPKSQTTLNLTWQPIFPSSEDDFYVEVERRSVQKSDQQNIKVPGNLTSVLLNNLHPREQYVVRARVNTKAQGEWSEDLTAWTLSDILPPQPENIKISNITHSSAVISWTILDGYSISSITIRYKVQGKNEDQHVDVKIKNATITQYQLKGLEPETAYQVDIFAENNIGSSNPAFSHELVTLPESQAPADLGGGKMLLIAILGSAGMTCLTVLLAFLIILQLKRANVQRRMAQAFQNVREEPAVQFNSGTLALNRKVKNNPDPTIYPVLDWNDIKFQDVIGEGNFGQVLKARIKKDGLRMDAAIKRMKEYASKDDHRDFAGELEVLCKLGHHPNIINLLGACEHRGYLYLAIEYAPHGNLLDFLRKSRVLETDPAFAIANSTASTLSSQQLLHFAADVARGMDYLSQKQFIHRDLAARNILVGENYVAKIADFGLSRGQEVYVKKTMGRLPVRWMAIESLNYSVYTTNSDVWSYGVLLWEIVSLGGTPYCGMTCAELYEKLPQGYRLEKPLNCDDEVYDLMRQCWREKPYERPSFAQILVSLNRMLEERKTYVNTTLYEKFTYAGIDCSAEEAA

In the case of `Nc1nccc(COc2cccnc2N2CCN(C(=O)Nc3ccc(F)cc3)CC2)n1` [Example 187, 4-(3-{[(2-aminopyrimidin-4-yl)methyl]oxy}pyridin-2-yl)-N-(4-fluorophenyl)piperazine-1-carboxamide], the IC50 is 1000 to 10000 nM.

With `Nc1nccc(COc2cccnc2N2CCN(C(=O)Nc3ccccc3F)CC2)n1` [Example 188, 4-(3-{[(2-aminopyrimidin-4-yl)methyl]oxy}pyridin-2-yl)-N-(2-fluorophenyl)piperazine-1-carboxamide], the IC50 fell in the range of 1000 to 10000 nM. Turning to `CCc1cc(CC)cc(NC(=O)N2CCN(c3ncccc3OCc3ccnc(N)n3)CC2)c1` [Example 189, 4-(3-{[(2-aminopyrimidin-4-yl)methyl]oxy}pyridin-2-yl)-N-(3,5-diethylphenyl)piperazine-1-carboxamide], the half-maximal inhibitory concentration (IC50) is less than 50 nM. Molecule `CCc1cccc(NC(=O)N2CCN(c3ncc(Br)cc3OCc3ccnc(N)n3)CC2)c1` [Example 190, 4-(3-{[(2-aminopyrimidin-4-yl)methyl]oxy}-5-bromopyridin-2-yl)-N-(3-ethylphenyl)piperazine-1-carboxamide] came in with a half-maximal inhibitory concentration (IC50) of less than 50 nM.

In the case of `CNC(=O)N1CCN(c2ncccc2OCc2ccnc(NC(=O)CN3CCN(C)CC3)c2)CC1` [Example 191, N-methyl-4-(3-{[(2-{[(4-methylpiperazin-1-yl)acetyl]amino}pyridin-4-yl)methyl]oxy}pyridin-2-yl)piperazine-1-carboxamide], the IC50 was in the range of 1000 to 10000 nM. `Nc1nccc(COc2cccnc2N2CCN(C(=O)Nc3cc(C(F)(F)F)ccc3Cl)CC2)n1` [Example 192, 4-(3-{[(2-aminopyrimidin-4-yl)methyl]oxy}pyridin-2-yl)-N-[2-chloro-5-(trifluoromethyl)phenyl]piperazine-1-carboxamide] showed an IC50 of less than 50 nM.

For the molecule `Nc1nccc(COc2cccnc2N2CCN(C(=O)Nc3cc(Cl)ccc3F)CC2)n1` [Example 193, 4-(3-{[(2-aminopyrimidin-4-yl)methyl]oxy}pyridin-2-yl)-N-(5-chloro-2-fluorophenyl)piperazine-1-carboxamide], the IC50 lay within 50 to 1000 nM. Consider `CCc1cccc(NC(=O)N2CCN(c3ncc(Br)cc3OCc3nc(N)ncc3Br)CC2)c1` [Example 194, 4-(3-{[(2-amino-5-bromopyrimidin-4-yl)methyl]oxy}-5-bromopyridin-2-yl)-N-(3-ethylphenyl)piperazine-1-carboxamide], for which the IC50 was less than 50 nM. On to `Nc1nccc(COc2cccnc2N2CCN(C(=O)Nc3cccc(C(F)(F)F)c3F)CC2)n1` [Example 195, 4-(3-{[(2-aminopyrimidin-4-yl)methyl]oxy}pyridin-2-yl)-N-[2-fluoro-3-(trifluoromethyl)phenyl]piperazine-1-carboxamide], for which the 50% inhibitory concentration (IC50) fell in the range of 50 to 1000 nM.

Molecule `Nc1nccc(COc2cccnc2N2CCN(C(=O)Nc3cc(F)cc(C(F)(F)F)c3)CC2)n1` [Example 196, 4-(3-{[(2-aminopyrimidin-4-yl)methyl]oxy}pyridin-2-yl)-N-[3-fluoro-5-(trifluoromethyl)phenyl]piperazine-1-carboxamide] displayed a 50% inhibitory concentration (IC50) of less than 50 nM. The same measure for `Nc1nccc(COc2cccnc2N2CCN(C(=O)Nc3cc(Cl)cc(Cl)c3)CC2)n1` [Example 197, 4-(3-{[(2-aminopyrimidin-4-yl)methyl]oxy}pyridin-2-yl)-N-(3,5-dichlorophenyl)piperazine-1-carboxamide]: less than 50 nM; for `CCc1cc(Cl)cc(NC(=O)N2CCN(c3ncccc3OCc3ccnc(NC(=O)CN4CCN(C)CC4)c3)CC2)c1` [Example 198, N-(3-chloro-5-ethylphenyl)-4-(3-{[(2-{[(4-methylpiperazin-1-yl)acetyl]amino}pyridin-4-yl)methyl]oxy}pyridin-2-yl)piperazine-1-carboxamide]: less than 50 nM; for `CCc1ccc(F)c(NC(=O)N2CCN(c3ncccc3OCc3ccnc(NC(=O)CN4CCN(C)CC4)c3)CC2)c1` [Example 199, N-(5-ethyl-2-fluorophenyl)-4-(3-{[(2-{[(4-methylpiperazin-1-yl)acetyl]amino}pyridin-4-yl)methyl]oxy}pyridin-2-yl)piperazine-1-carboxamide]: less than 50 nM. Consider `CCc1cc(NC(=O)N2CCN(c3ncccc3OCc3ccnc(N)n3)CC2)cc(C(F)(F)F)c1` [Example 200, 4-(3-{[(2-aminopyrimidin-4-yl)methyl]oxy}pyridin-2-yl)-N-[3-ethyl-5-(trifluoromethyl)phenyl]piperazine-1-carboxamide], for which the IC50 was less than 50 nM. The same measure for `CCc1cccc(NC(=O)N2CCN(c3nccnc3OCc3ccnc(N)n3)CC2)c1` [Example 201, 4-(3-{[(2-aminopyrimidin-4-yl)methyl]oxy}pyrazin-2-yl)-N-(3-ethylphenyl)piperazine-1-carboxamide]: less than 50 nM.

`CCc1cc(Cl)cc(NC(=O)N2CCN(c3nccnc3OCc3ccnc(N)n3)CC2)c1` [Example 202, 4-(3-{[(2-aminopyrimidin-4-yl)methyl]oxy}pyrazin-2-yl)-N-(3-chloro-5-ethylphenyl)piperazine-1-carboxamide] returned an IC50 of less than 50 nM. `CCc1ccc(F)c(NC(=O)N2CCN(c3nccnc3OCc3ccnc(N)n3)CC2)c1` [Example 203, 4-(3-{[(2-aminopyrimidin-4-yl)methyl]oxy}pyrazin-2-yl)-N-(5-ethyl-2-fluorophenyl)piperazine-1-carboxamide] registered an IC50 of less than 50 nM. `CNC(=O)N1CCN(c2ncccc2OCc2ccnc(N)n2)CC1` [Example 204, 4-(3-{[(2-aminopyrimidin-4-yl)methyl]oxy}pyridin-2-yl)-N-methylpiperazine-1-carboxamide] gave an IC50 not below 10000 nM. The molecule `CCNC(=O)N1CCN(c2ncccc2OCc2ccnc(N)n2)CC1` [Example 205, 4-(3-{[(2-aminopyrimidin-4-yl)methyl]oxy}pyridin-2-yl)-N-ethylpiperazine-1-carboxamide] had an IC50 not below 10000 nM.

With `Nc1nccc(COc2cccnc2N2CCN(C(=O)NC3CCCCC3)CC2)n1` [Example 206, 4-(3-{[(2-aminopyrimidin-4-yl)methyl]oxy}pyridin-2-yl)-N-cyclohexylpiperazine-1-carboxamide], the half-maximal inhibitory concentration (IC50) was in the range of 1000 to 10000 nM.

The molecule `CC(=O)N1CCN(c2ncccc2OCc2ccnc(N)n2)CC1` [Example 207, 4-({[2-(4-acetylpiperazin-1-yl)pyridin-3-yl]oxy}methyl)pyrimidin-2-amine] registered a concentration for half-maximal inhibition (IC50) not below 10000 nM. Turning to `CCC(=O)N1CCN(c2ncccc2OCc2ccnc(N)n2)CC1` [Example 208, 4-({[2-(4-propanoylpiperazin-1-yl)pyridin-3-yl]oxy}methyl)pyrimidin-2-amine], the half-inhibitory concentration (IC50) was not below 10000 nM.

Consider `CN1CCN(CC(=O)Nc2cc(COc3cccnc3N3CCN(C(=O)Nc4cccc(C5CC5)c4)CC3)ccn2)CC1` [Example 209, N-(3-cyclopropylphenyl)-4-(3-{[(2-{[(4-methylpiperazin-1-yl)acetyl]amino}pyridin-4-yl)methyl]oxy}pyridin-2-yl)piperazine-1-carboxamide], for which the IC50 is less than 50 nM. The same measure for `Nc1nccc(COc2cccnc2N2CCN(C(=O)Nc3cccc(C4CC4)c3)CC2)n1` [Example 210, 4-(3-{[(2-aminopyrimidin-4-yl)methyl]oxy}pyridin-2-yl)-N-(3-cyclopropylphenyl)piperazine-1-carboxamide]: less than 50 nM; for `CN1CCN(CC(=O)Nc2cc(COc3cccnc3N3CCN(C(=O)Nc4cc(C(F)(F)F)ccc4F)CC3)ccn2)CC1` [Example 211, N-[2-fluoro-5-(trifluoromethyl)phenyl]-4-(3-{[(2-{[(4-methylpiperazin-1-yl)acetyl]amino}pyridin-4-yl)methyl]oxy}pyridin-2-yl)piperazine-1-carboxamide]: 50 to 1000 nM; for `CN1CCN(CC(=O)Nc2cc(COc3cccnc3N3CCN(C(=O)Nc4cc(F)cc(C(F)(F)F)c4)CC3)ccn2)CC1` [Example 212, N-[3-fluoro-5-(trifluoromethyl)phenyl]-4-(3-{[(2-{[(4-methylpiperazin-1-yl)acetyl]amino}pyridin-4-yl)methyl]oxy}pyridin-2-yl)piperazine-1-carboxamide]: less than 50 nM. In the case of `CN1CCN(CC(=O)Nc2cc(COc3cccnc3N3CCN(C(=O)Nc4cc(Cl)cc(Cl)c4)CC3)ccn2)CC1` [Example 213, N-(3,5-dichlorophenyl)-4-(3-{[(2-{[(4-methylpiperazin-1-yl)acetyl]amino}pyridin-4-yl)methyl]oxy}pyridin-2-yl)piperazine-1-carboxamide] it was less than 50 nM; in that of `CN1CCN(CC(=O)Nc2cc(COc3cccnc3N3CCN(C(=O)Nc4cccc(C(F)(F)F)c4)CC3)ccn2)CC1` [Example 214, 4-(3-{[(2-{[(4-methylpiperazin-1-yl)acetyl]amino}pyridin-4-yl)methyl]oxy}pyridin-2-yl)-N-[3-(trifluoromethyl)phenyl]piperazine-1-carboxamide], less than 50 nM; in that of `CCc1cc(CC)cc(NC(=O)N2CCN(c3nccnc3OCc3ccnc(N)n3)CC2)c1` [Example 215, 4-(3-{[(2-aminopyrimidin-4-yl)methyl]oxy}pyrazin-2-yl)-N-(3,5-diethylphenyl)piperazine-1-carboxamide], less than 50 nM. In turn, `CC(Oc1cccnc1N1CCN(C(=O)Nc2cc(C(F)(F)F)cc(C(F)(F)F)c2)CC1)c1ccnc(N)n1` (centres unmarked) [Example 216, 4-(3-{[1-(2-aminopyrimidin-4-yl)ethyl]oxy}pyridin-2-yl)-N-[3,5-bis(trifluoromethyl)phenyl]piperazine-1-carboxamide] gave an IC50 of less than 50 nM. The molecule `Nc1nccc(COc2nccnc2N2CCN(C(=O)Nc3cc(Cl)cc(Cl)c3)CC2)n1` [Example 217, 4-(3-{[(2-aminopyrimidin-4-yl)methyl]oxy}pyrazin-2-yl)-N-(3,5-dichlorophenyl)piperazine-1-carboxamide] registered an IC50 of less than 50 nM. As to `Nc1nccc(COc2nccnc2N2CCN(C(=O)Nc3cc(F)cc(C(F)(F)F)c3)CC2)n1` [Example 218, 4-(3-{[(2-aminopyrimidin-4-yl)methyl]oxy}pyrazin-2-yl)-N-[3-fluoro-5-(trifluoromethyl)phenyl]piperazine-1-carboxamide], the IC50 was less than 50 nM.
